What was measured:
[1] = biological target: Beta-2 adrenergic receptor (Homo sapiens, UniProt P07550); assay: DRUGMATRIX: Adrenergic beta2 radioligand binding (ligand: [3H] CGP-12177); assay type: cell membranes, Membrane; settings: cho; Not Active = under 50% inhibition at 10 µM
[2] = biological target: C-C chemokine receptor type 5 (Homo sapiens, UniProt P51681); assay type: cell membranes, HEK293, Membrane; settings: hek293; further: in other assays of this panel Not Active means under 50% inhibition at 10 µM
[3] = biological target: T1, Alpha-1D adrenergic receptor (Homo sapiens, UniProt P25100); assay type: cell membranes, HEK293, Membrane; settings: hek293; further: in other assays of this panel Not Active means under 50% inhibition at 10 µM
T1 sequence (P25100 whole entry): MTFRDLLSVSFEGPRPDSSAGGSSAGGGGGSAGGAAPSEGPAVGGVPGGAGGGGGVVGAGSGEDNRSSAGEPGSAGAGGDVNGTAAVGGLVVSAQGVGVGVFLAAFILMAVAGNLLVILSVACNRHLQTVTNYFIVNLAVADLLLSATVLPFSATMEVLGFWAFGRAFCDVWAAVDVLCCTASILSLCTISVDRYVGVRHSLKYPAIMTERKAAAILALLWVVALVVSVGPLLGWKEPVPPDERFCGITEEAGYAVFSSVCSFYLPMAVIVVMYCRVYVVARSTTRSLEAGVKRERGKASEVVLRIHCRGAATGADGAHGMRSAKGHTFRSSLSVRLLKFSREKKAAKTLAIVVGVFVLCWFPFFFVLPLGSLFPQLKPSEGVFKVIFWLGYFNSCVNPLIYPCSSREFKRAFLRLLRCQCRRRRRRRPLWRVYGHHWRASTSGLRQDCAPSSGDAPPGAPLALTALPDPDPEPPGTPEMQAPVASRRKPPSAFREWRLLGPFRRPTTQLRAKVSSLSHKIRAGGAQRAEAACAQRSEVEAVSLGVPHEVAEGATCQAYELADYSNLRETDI

[4] = biological target: T2, Muscarinic acetylcholine receptor M5 (Homo sapiens, UniProt P08912); assay type: cell membranes, CHO-K1, Membrane; settings: cho-k1; further: in other assays of this panel Not Active means under 50% inhibition at 10 µM
T2 sequence (P08912 whole entry): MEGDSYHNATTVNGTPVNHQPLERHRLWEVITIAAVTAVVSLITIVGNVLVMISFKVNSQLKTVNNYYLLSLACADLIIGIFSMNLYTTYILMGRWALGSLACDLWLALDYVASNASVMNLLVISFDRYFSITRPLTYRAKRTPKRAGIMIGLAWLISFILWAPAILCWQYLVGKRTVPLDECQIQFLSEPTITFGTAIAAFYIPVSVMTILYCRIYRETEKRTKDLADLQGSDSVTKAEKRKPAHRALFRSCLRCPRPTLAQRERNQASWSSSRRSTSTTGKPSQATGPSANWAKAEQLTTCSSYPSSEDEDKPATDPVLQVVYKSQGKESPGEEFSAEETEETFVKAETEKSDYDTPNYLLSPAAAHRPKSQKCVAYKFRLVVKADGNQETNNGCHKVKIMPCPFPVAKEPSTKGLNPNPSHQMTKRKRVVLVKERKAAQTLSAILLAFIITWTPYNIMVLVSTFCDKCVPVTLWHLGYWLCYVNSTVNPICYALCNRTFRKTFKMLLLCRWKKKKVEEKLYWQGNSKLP

[5] = biological target: 5-hydroxytryptamine receptor 6 (Homo sapiens, UniProt P50406); assay type: cell membranes, HeLa, Membrane; settings: hela; further: in other assays of this panel Not Active means under 50% inhibition at 10 µM
[6] = biological target: T3, Nitric oxide synthase, inducible (Mus musculus, UniProt P29477); set-up: species or system Escherichia coli
T3 sequence (P29477 whole entry): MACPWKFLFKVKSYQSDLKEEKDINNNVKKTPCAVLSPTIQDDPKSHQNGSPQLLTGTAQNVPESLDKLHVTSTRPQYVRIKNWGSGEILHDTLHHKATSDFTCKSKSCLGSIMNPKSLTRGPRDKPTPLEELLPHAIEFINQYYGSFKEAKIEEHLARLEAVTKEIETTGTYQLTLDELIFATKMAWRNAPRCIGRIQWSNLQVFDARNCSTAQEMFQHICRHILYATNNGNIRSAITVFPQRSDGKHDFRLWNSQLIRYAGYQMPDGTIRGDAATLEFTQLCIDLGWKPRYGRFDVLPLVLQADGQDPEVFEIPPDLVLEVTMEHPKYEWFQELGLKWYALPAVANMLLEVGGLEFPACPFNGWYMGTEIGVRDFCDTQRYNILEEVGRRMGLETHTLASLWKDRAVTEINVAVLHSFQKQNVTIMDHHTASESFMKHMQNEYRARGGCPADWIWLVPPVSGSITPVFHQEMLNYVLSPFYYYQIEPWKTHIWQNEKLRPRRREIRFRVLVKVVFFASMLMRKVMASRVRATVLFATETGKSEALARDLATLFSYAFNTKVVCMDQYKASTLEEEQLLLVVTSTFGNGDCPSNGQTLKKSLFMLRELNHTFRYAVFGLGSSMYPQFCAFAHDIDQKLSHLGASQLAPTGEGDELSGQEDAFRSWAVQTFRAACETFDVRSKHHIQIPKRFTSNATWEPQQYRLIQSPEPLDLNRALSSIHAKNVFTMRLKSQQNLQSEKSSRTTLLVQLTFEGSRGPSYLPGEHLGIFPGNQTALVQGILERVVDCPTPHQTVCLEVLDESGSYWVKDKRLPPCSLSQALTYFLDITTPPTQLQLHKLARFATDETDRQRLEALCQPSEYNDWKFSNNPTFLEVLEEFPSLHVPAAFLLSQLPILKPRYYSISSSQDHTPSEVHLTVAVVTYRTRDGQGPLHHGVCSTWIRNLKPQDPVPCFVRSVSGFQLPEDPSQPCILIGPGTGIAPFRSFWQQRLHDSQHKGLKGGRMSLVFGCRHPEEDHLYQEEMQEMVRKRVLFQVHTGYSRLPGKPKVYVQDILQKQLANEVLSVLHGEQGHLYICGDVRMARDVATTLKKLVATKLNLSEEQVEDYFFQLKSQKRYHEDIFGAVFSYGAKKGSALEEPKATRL

[7] = biological target: Beta-3 adrenergic receptor (Homo sapiens, UniProt P13945); assay: DRUGMATRIX: Adrenergic beta3 radioligand binding (ligand: [125I] Cyanopindolol); assay type: cell membranes, Membrane; settings: hek293; Not Active = under 50% inhibition at 10 µM
Sequence of Beta-3 adrenergic receptor (P13945 whole entry): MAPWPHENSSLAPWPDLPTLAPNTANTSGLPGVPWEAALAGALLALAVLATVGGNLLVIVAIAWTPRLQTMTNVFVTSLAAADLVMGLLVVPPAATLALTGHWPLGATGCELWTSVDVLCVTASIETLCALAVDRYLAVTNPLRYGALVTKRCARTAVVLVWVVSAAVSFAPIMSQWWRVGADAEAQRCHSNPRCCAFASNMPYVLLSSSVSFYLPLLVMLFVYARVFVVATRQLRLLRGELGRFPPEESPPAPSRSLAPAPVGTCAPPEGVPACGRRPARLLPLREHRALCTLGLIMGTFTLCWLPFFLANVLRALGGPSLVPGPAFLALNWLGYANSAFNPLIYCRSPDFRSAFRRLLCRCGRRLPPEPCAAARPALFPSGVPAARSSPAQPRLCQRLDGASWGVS

Sequence of 5-hydroxytryptamine receptor 6 (P50406 whole entry): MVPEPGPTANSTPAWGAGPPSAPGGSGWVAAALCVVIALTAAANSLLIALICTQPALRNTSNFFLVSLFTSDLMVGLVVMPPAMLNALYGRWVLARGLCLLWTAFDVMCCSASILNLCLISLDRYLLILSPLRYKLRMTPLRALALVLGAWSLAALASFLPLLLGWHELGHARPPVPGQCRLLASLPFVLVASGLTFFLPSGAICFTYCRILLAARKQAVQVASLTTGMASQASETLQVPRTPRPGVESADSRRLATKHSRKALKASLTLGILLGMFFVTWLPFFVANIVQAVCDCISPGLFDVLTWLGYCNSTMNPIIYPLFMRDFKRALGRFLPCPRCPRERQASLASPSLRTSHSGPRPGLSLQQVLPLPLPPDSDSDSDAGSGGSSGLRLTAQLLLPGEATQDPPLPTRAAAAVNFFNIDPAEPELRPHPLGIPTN
Sequence of C-C chemokine receptor type 5 (P51681 whole entry): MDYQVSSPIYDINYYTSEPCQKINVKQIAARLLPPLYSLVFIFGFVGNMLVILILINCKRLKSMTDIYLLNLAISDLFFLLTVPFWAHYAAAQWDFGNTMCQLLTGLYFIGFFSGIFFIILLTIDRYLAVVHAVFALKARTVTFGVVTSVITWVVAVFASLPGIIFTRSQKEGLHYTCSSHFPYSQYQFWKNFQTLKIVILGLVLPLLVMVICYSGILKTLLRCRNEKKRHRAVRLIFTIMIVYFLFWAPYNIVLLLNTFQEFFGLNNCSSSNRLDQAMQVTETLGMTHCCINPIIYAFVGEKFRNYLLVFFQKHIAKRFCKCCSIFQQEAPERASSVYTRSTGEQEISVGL

Cc1nccn1CC1CCc2c(c3ccccc3n2C)C1=O (centres undefined) [ONDANSETRON]
Not Active: IC50 [1] | IC50 [2] | IC50 [3] | IC50 [4] | IC50 [5] | IC50 [6] | IC50 [7]

CCn1cc(C(=O)O)c(=O)c2cc(F)c(N3CCN(C)CC3)cc21 [PEFLOXACIN]
Not Active: IC50 [1] | IC50 [2] | IC50 [3] | IC50 [4] | IC50 [5] | IC50 [6] | IC50 [7]

CCCCOc1ccc(OCCCN2CCOCC2)cc1 [PRAMOXINE]
Not Active: IC50 [1] | IC50 [2] | IC50 [3] | IC50 [4] | IC50 [5] | IC50 [6] | IC50 [7]

O=C(C1CCCCC1)N1CC(=O)N2CCc3ccccc3C2C1 (centres undefined) [PRAZIQUANTEL]
Not Active: IC50 [1] | IC50 [2] | IC50 [3] | IC50 [4] | IC50 [5] | IC50 [6] | IC50 [7]

CCN(CC)CCOC(=O)c1ccc(N)cc1 [PROCAINE]
Not Active: IC50 [1] | IC50 [2] | IC50 [3] | IC50 [4] | IC50 [5] | IC50 [6] | IC50 [7]

CCCN(CCC)C(=O)C(CCC(=O)O)NC(=O)c1ccccc1 (centres undefined) [PROGLUMIDE]
Not Active: IC50 [1] | IC50 [2] | IC50 [3] | IC50 [4] | IC50 [5] | IC50 [6] | IC50 [7]

NC(=O)c1cnccn1 [PYRAZINAMIDE]
Not Active: IC50 [1] | IC50 [2] | IC50 [3] | IC50 [4] | IC50 [5] | IC50 [6] | IC50 [7]

Cc1cc2cc3c(C)cc(=O)oc3c(C)c2o1 [TRIOXSALEN]
Not Active: IC50 [1] | IC50 [2] | IC50 [3] | IC50 [4] | IC50 [5] | IC50 [6] | IC50 [7]

CCCC(CCC)C(=O)O [VALPROIC ACID]
Not Active: IC50 [1] | IC50 [2] | IC50 [3] | IC50 [4] | IC50 [5] | IC50 [6] | IC50 [7]

CCC1=C[C@@H]2CN(C1)Cc1c([nH]c3ccccc13)[C@@](C(=O)OC)(c1cc3c(cc1OC)N(C)[C@H]1[C@@](O)(C(=O)OC)[C@H](OC(C)=O)[C@]4(CC)C=CCN5CC[C@]31[C@@H]54)C2 [VINORELBINE]
Not Active: IC50 [1] | IC50 [2] | IC50 [3] | IC50 [4] | IC50 [5] | IC50 [6] | IC50 [7]

CADMIUM DICHLORIDE
Not Active: IC50 [1] | Ki [1] | IC50 [2] | Ki [2] | IC50 [3] | Ki [3] | IC50 [4] | Ki [4] | IC50 [5] | Ki [5] | IC50 [6] | Ki [6] | IC50 [7] | Ki [7]
